According to patent publication US20200024278A1, “COMPOSITION COMPRISING ANTIBIOTIC COMPOUND AND AN HETEROCYCLIC COMPOUND AND THEIR USE IN PREVENTING OR TREATING BACTERIAL INFECTIONS” (MUTABILIS, priority 2016, published 2020):
Read-outs that look alike come from different tables or passages of the source.

Columns and labels:
Assay in all cases: MIC, broth microdilution (CLSI), substance alone or ATB combined with compound at 4 or 8 μg/mL
PAE UFR48 = assay type: cell-based, P. aeruginosa; details: PAE UFR48; for MIC: Pseudomonas aeruginosa
Outline: (§1)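 Each strain received 5·10^5 CFU/mL of log-phase cells in ca-MHB over DMSO-spotted compound or compound-antibiotic combinations. After 16-20 h at 35° C, growth was scored visually.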

ECO UFR39 = assay type: cell-based, E. coli; details: ECO UFR39
Outline: as §1

ECO 190317 = assay type: cell-based, E. coli; details: ECO 190317
Outline: as §1

SAU 29213 = assay type: cell-based, S. aureus; details: SAU 29213
Outline: as §1

ECL P99 = assay type: cell-based, E. cloacae; details: ECL P99
Outline: as §1

SPN 49619 = assay type: cell-based, S. pneumoniae; details: SPN 49619
Outline: as §1

[1] = Escherichia coli, antibiotic alone, read-out: MIC ATB alone

For `NCC[C@H](O)C(=O)N[C@@H]1C[C@H](N)[C@@H](O[C@H]2O[C@H](CN)[C@@H](O)[C@H](O)[C@H]2O)[C@H](O)[C@H]1O[C@H]1O[C@H](CO)[C@@H](O)[C@H](N)[C@H]1O` [AN, Amikacin, reference compound], the “MIC ATB combined with Example 12 @8 μg/ml” value (PAE UFR48; with Example 12 at 8 μg/ml) was 32 µg/mL, the “MIC ATB combined with Example 13 @8 μg/ml” value (PAE UFR48; with Example 13 at 8 μg/ml) was 32 µg/mL and the “MIC ATB combined with Example 14 @8 μg/ml” value (PAE UFR48; with Example 14 at 8 μg/ml) was 32 µg/mL. The “MIC ATB combined with Example 15 @4 μgml” value (PAE UFR48; with Example 15 at 4 μg/ml) was >32 µg/mL, the “MIC ATB combined with Example 16 @4 μg/ml” value (PAE UFR48; with Example 16 at 4 μg/ml) was 32 µg/mL and the MIC (PAE UFR48; antibiotic alone, read-out: MIC ATB alone) was 32 µg/mL. The MIC (PAE UFR48; substance alone, read-out: MIC) was 32 µg/mL, the “MIC ATB combined with Example 1 @8 μg/ml” value (ECO UFR39; with Example 1 @8 μg/ml) was “<=0.031 μg/mL” and the “MIC ATB combined with Example 1 @8 μg/ml” value (ECO UFR39; with Example 1 at 8 μg/ml) was “<=0.031 μg/mL”. For the same compound, the “MIC ATB combined with Example 7 @8 μgml” value (ECO UFR39; with Example 7 at 8 μg/ml) was <0.031 µg/mL, the “MIC ATB combined with Example 9 @4 μg/ml” value (ECO UFR39; with Example 9 @4 μg/ml) was <0.031 µg/mL and the “MIC ATB combined with Example 9 @4 μg/ml” value (ECO UFR39; with Example 9 at 4 μg/ml) was <0.031 µg/mL. For the same compound, the “MIC ATB combined with Example 11 @8 μg/ml” value (ECO UFR39; with Example 11 at 8 μg/ml) was <0.031 µg/mL, the “MIC ATB combined with Example 12 @8 μg/ml” value (ECO UFR39; with Example 12 at 8 μg/ml) was <0.031 µg/mL and the “MIC ATB combined with Example 13 @8 μg/ml” value (ECO UFR39; with Example 13 at 8 μg/ml) was 0.063 µg/mL. The “MIC ATB combined with Example 14 @8 μg/ml” value (ECO UFR39; with Example 14 at 8 μg/ml) was <0.031 µg/mL, the “MIC ATB combined with Example 15 @4 μgml” value (ECO UFR39; with Example 15 at 4 μg/ml) was <0.031 µg/mL and the “MIC ATB combined with Example 16 @4 μg/ml” value (ECO UFR39; with Example 16 at 4 μg/ml) was <0.031 µg/mL. The MIC (ECO UFR39; [1]) was > 32 µg/mL, the “MIC ATB combined with Example 1 @8 μg/ml” value (ECO 190317; with Example 1 @8 μg/ml) was <0.031 µg/mL and the “MIC ATB combined with Example 1 @8 μg/ml” value (ECO 190317; with Example 1 at 8 μg/ml) was <0.031 µg/mL. For the same compound, the “MIC ATB combined with Example 7 @8 μgml” value (ECO 190317; with Example 7 at 8 μg/ml) was <0.031 µg/mL, the “MIC ATB combined with Example 9 @4 μg/ml” value (ECO 190317; with Example 9 @4 μg/ml) was <0.031 µg/mL and the “MIC ATB combined with Example 9 @4 μg/ml” value (ECO 190317; with Example 9 at 4 μg/ml) was <0.031 µg/mL. The “MIC ATB combined with Example 11 @8 μg/ml” value (ECO 190317; with Example 11 at 8 μg/ml) was <0.031 µg/mL, the “MIC ATB combined with Example 12 @8 μg/ml” value (ECO 190317; with Example 12 at 8 μg/ml) was <0.031 µg/mL and the “MIC ATB combined with Example 13 @8 μg/ml” value (ECO 190317; with Example 13 at 8 μg/ml) was <0.031 µg/mL. For the same compound, the “MIC ATB combined with Example 14 @8 μg/ml” value (ECO 190317; with Example 14 at 8 μg/ml) was <0.031 µg/mL, the “MIC ATB combined with Example 15 @4 μgml” value (ECO 190317; with Example 15 at 4 μg/ml) was <0.031 µg/mL and the “MIC ATB combined with Example 16 @4 μg/ml” value (ECO 190317; with Example 16 at 4 μg/ml) was <0.031 µg/mL. The MIC (ECO 190317; [1]) was 8 µg/mL, the “MIC ATB combined with Example 1 @8 μg/ml” value (SAU 29213; with Example 1 @8 μg/ml) was 4 µg/mL and the “MIC ATB combined with Example 1 @8 μg/ml” value (SAU 29213; with Example 1 at 8 μg/ml) was 4 µg/mL. The “MIC ATB combined with Example 7 @8 μgml” value (SAU 29213; with Example 7 at 8 μg/ml) was 2 µg/mL, the “MIC ATB combined with Example 9 @4 μg/ml” value (SAU 29213; with Example 9 @4 μg/ml) was <0.031 µg/mL and the “MIC ATB combined with Example 9 @4 μg/ml” value (SAU 29213; with Example 9 at 4 μg/ml) was <0.031 µg/mL. The “MIC ATB combined with Example 11 @8 μg/ml” value (SAU 29213; with Example 11 at 8 μg/ml) was <0.031 µg/mL, the “MIC ATB combined with Example 12 @8 μg/ml” value (SAU 29213; with Example 12 at 8 μg/ml) was <0.031 µg/mL and the “MIC ATB combined with Example 13 @8 μg/ml” value (SAU 29213; with Example 13 at 8 μg/ml) was 4 µg/mL. For the same compound, the “MIC ATB combined with Example 14 @8 μg/ml” value (SAU 29213; with Example 14 at 8 μg/ml) was <0.031 µg/mL, the “MIC ATB combined with Example 15 @4 μgml” value (SAU 29213; with Example 15 at 4 μg/ml) was <0.031 µg/mL and the “MIC ATB combined with Example 16 @4 μg/ml” value (SAU 29213; with Example 16 at 4 μg/ml) was <0.031 µg/mL. The MIC (SAU 29213; Staphylococcus aureus, antibiotic alone, read-out: MIC ATB alone) was 2 µg/mL, the “MIC ATB combined with Example 1 @8 μg/ml” value (ECL P99; with Example 1 @8 μg/ml) was <0.031 µg/mL and the “MIC ATB combined with Example 1 @8 μg/ml” value (ECL P99; with Example 1 at 8 μg/ml) was <0.031 µg/mL. The “MIC ATB combined with Example 7 @8 μgml” value (ECL P99; with Example 7 at 8 μg/ml) was 0.063 µg/mL, the “MIC ATB combined with Example 9 @4 μg/ml” value (ECL P99; with Example 9 @4 μg/ml) was <0.031 µg/mL and the “MIC ATB combined with Example 9 @4 μg/ml” value (ECL P99; with Example 9 at 4 μg/ml) was <0.031 µg/mL. For the same compound, the “MIC ATB combined with Example 11 @8 μg/ml” value (ECL P99; with Example 11 at 8 μg/ml) was <0.031 µg/mL, the “MIC ATB combined with Example 12 @8 μg/ml” value (ECL P99; with Example 12 at 8 μg/ml) was <0.031 µg/mL and the “MIC ATB combined with Example 13 @8 μg/ml” value (ECL P99; with Example 13 at 8 μg/ml) was 0.125 µg/mL. For the same compound, the “MIC ATB combined with Example 14 @8 μg/ml” value (ECL P99; with Example 14 at 8 μg/ml) was <0.031 µg/mL, the “MIC ATB combined with Example 15 @4 μgml” value (ECL P99; with Example 15 at 4 μg/ml) was “<=0.031 μg/mL” and the “MIC ATB combined with Example 16 @4 μg/ml” value (ECL P99; with Example 16 at 4 μg/ml) was <0.031 µg/mL. The MIC (ECL P99; Enterobacter cloacae, antibiotic alone, read-out: MIC ATB alone) was 0.063 µg/mL, the “MIC ATB combined with Example 1 @8 μg/ml” value (SPN 49619; with Example 1 @8 μg/ml) was 32 µg/mL and the “MIC ATB combined with Example 1 @8 μg/ml” value (SPN 49619; with Example 1 at 8 μg/ml) was 32 µg/mL. The “MIC ATB combined with Example 7 @8 μgml” value (SPN 49619; with Example 7 at 8 μg/ml) was >32 µg/mL, the “MIC ATB combined with Example 9 @4 μg/ml” value (SPN 49619; with Example 9 @4 μg/ml) was <0.031 µg/mL and the “MIC ATB combined with Example 9 @4 μg/ml” value (SPN 49619; with Example 9 at 4 μg/ml) was <0.031 µg/mL. The “MIC ATB combined with Example 11 @8 μg/ml” value (SPN 49619; with Example 11 at 8 μg/ml) was 32 µg/mL, the “MIC ATB combined with Example 12 @8 μg/ml” value (SPN 49619; with Example 12 at 8 μg/ml) was 4 µg/mL and the “MIC ATB combined with Example 13 @8 μg/ml” value (SPN 49619; with Example 13 at 8 μg/ml) was >32 µg/mL. For the same compound, the “MIC ATB combined with Example 14 @8 μg/ml” value (SPN 49619; with Example 14 at 8 μg/ml) was 4 µg/mL, the “MIC ATB combined with Example 15 @4 μgml” value (SPN 49619; with Example 15 at 4 μg/ml) was 32 µg/mL and the “MIC ATB combined with Example 16 @4 μg/ml” value (SPN 49619; with Example 16 at 4 μg/ml) was 16 µg/mL. For the same compound, the MIC (SPN 49619; Streptococcus pneumoniae, antibiotic alone, read-out: MIC ATB alone) was 32 µg/mL.
